Measurements reported in US20240327407A1, “NOVEL INHIBITORS OF AUTOTAXIN” (CADILA HEAL THCARE LIMITED, priority 2021, published 2024).

molecular target: ATX (Mus musculus (Mouse), UniProt Q9R1E6); assay: Mice serum ATX inhibitory activity (IC50 determination); type: biochemical
Experimental: ATX Inhibitory activity was determined in a biochemical or whole blood assay as described previously (Bretschneider, T. et al., SLAS Discov 2017, 22, 425). The biochemical reaction consisted of 50 mM Tris (pH 8.0), 3 mM KCl, 1 mM CaCl2, 1 mM Mg Cl2, […] NaCl and 0.1% bovine serum albumin, which was supplemented with 5 nM recombinant rat ATX, 5 μM 18:1 LPC and the test compound (0.1-10 μM). The reaction was stopped at 2 h by the addition of butanol, prior to the RapidFire-MS-based analysis.
The whole blood assay consisted of 45 μL μL heparinized mice/rat whole blood and the test compound (0.12-100 μM). The reaction was stopped after 1 h at 37° C. by addition of 100 μL 40 mM disodium hydrogen phosphate buffer containing 30 mM citric acid (pH 4) and 1 μM 17:0 LPA (internal standard). Afterwards the samples were treated a described above and analysed by LC-MS/MS. The data was analyzed using graph pad prism (v 7.03) to arrive at the half-maximal inhibitory concentrations (IC50) of the test compounds.

Row | IC50 [nM] | Compound
1 | 73.4 | CC(C)[C@@H](NC(=O)c1cc(C(F)(F)F)ccc1F)C(=O)N1CCC2(CC1)C(=O)N(CC1CC1)CC2c1ccc(F)cc1 (stereo partly drawn) [Compound 112, N-((2R)-1-(2-(cyclopropylmethyl)-4-(4-fluorophenyl)-1-oxo-2,8-diazaspiro[4.5]decan-8-yl)-3-methyl-1-oxobutan-2-yl)-2-fluoro-5-(trifluoromethyl)benzamide]
2 | 10.2 | Cc1ccnc(C(=O)N[C@@H](C(=O)N2CCC3(CC2)CN(C)CC3c2cccnc2)C(C)C)c1 (stereo partly drawn) [Compound 162, 4-methyl-N-((2R)-3-methyl-1-(2-methyl-4-(pyridin-3-yl)-2,8-diazaspiro[4.5]decan-8-yl)-1-oxobutan-2-yl)picolinamide]
3 | 40.4 | Cc1cc(C)cc(C2CN(C)CC23CCN(C(=O)[C@H](NC(=O)c2cc(C(F)(F)F)ccc2F)C(C)C)CC3)c1 (stereo partly drawn) [Compound 138, N-((2R)-1-(4-(3,5-dimethylphenyl)-2-methyl-2,8-diazaspiro[4.5]decan-8-yl)-3-methyl-1-oxobutan-2-yl)-2-fluoro-5-(trifluoromethyl)benzamide]
4 | 47.3 | CC(C)[C@@H](NC(=O)c1cc(F)ccc1F)C(=O)N1CCC2(CC1)CN(C)CC2c1ccc(F)cc1 (stereo partly drawn) [Compound 149, 2,5-difluoro-N-((2R)-1-(4-(4-fluorophenyl)-2-methyl-2,8-diazaspiro[4.5]decan-8-yl)-3-methyl-1-oxobutan-2-yl)benzamide]
5 | 16.4 | CC(C)[C@@H](NC(=O)c1cccc(C(F)(F)F)c1)C(=O)N1CCC2(CC1)C(=O)N(C)CC2c1ccccc1 (stereo partly drawn) [Compound 108, N-((2R)-3-methyl-1-(2-methyl-1-oxo-4-phenyl-2,8-diazaspiro[4.5]decan-8-yl)-1-oxobutan-2-yl)-3-(trifluoromethyl)benzamide]
6 | 11.7 | CCN1CC(c2ccc(F)cc2)C2(CCN(C(=O)[C@H](NC(=O)c3cc(C(F)(F)F)ccc3F)C(C)C)CC2)C1=O (stereo partly drawn) [Compound 104, N-((2R)-1-(2-ethyl-4-(4-fluorophenyl)-1-oxo-2,8-diazaspiro[4.5]decan-8-yl)-3-methyl-1-oxobutan-2-yl)-2-fluoro-5-(trifluoromethyl)benzamide]
7 | 25.6 | COc1ccc(F)c(C(=O)N[C@@H](C(=O)N2CCC3(CC2)C(=O)N(C)CC3c2ccccc2)C(C)C)c1 (stereo partly drawn) [Compound 105, 2-fluoro-5-methoxy-N-((2R)-3-methyl-1-(2-methyl-1-oxo-4-phenyl-2,8-diazaspiro[4.5]decan-8-yl)-1-oxobutan-2-yl)benzamide]
8 | 7.5 | CC(C)[C@@H](NC(=O)c1cc(C(F)(F)F)ccc1F)C(=O)N1CCC2(CC1)CC(=O)N(C)CC2c1ccc(F)cc1 (stereo partly drawn) [Compound 176, 2-fluoro-N-((2R)-1-(7-(4-fluorophenyl)-9-methyl-10-oxo-3,9-diazaspiro[5.5]undecan-3-yl)-3-methyl-1-oxobutan-2-yl)-5-(trifluoromethyl)benzamide]
9 | 66.8 | CC(C)[C@@H](NC(=O)c1ccccc1F)C(=O)N1CCC2(CC1)C(=O)N(C)CC2c1ccccc1 (stereo partly drawn) [Compound 107, 2-fluoro-N-((2R)-3-methyl-1-(2-methyl-1-oxo-4-phenyl-2,8-diazaspiro[4.5]decan-8-yl)-1-oxobutan-2-yl)benzamide]
10 | 84.4 | CC(C)[C@@H](NC(=O)c1cc(C(F)(F)F)ccc1F)C(=O)N1CCC2(CC1)CN(CC1CC1)CC2c1ccc(F)cc1 (stereo partly drawn) [Compound 121, N-((2R)-1-(2-(cyclopropylmethyl)-4-(4-fluorophenyl)-2,8-diazaspiro[4.5]decan-8-yl)-3-methyl-1-oxobutan-2-yl)-2-fluoro-5-(trifluoromethyl)benzamide]
11 | 44.4 | CC(C)[C@@H](NC(=O)c1cc(C(F)(F)F)ccc1F)C(=O)N1CCC2(CC1)CN(C(C)C)CC2c1ccc(F)cc1 (stereo partly drawn) [Compound 120, 2-fluoro-N-((2R)-1-(4-(4-fluorophenyl)-2-isopropyl-2,8-diazaspiro[4.5]decan-8-yl)-3-methyl-1-oxobutan-2-yl)-5-(trifluoromethyl)benzamide]
12 | 4 | CC(C)[C@@H](NC(=O)c1cc(C(F)(F)F)ccc1F)C(=O)N1CCC2(CC1)C(=O)N(C)CC2c1ccccc1 (stereo partly drawn) [Compound 44, 2-fluoro-N-((2R)-3-methyl-1-(2-methyl-1-oxo-4-phenyl-2,8-diazaspiro[4.5]decan-8-yl)-1-oxobutan-2-yl)-5-(trifluoromethyl)benzamide]
13 | 19.2 | CC(C)[C@@H](NC(=O)c1cc(C(F)(F)F)ccc1F)C(=O)N1CCC2(CC1)C(=O)NCC2c1ccccc1 (stereo partly drawn) [Compound 45, 2-fluoro-N-((2R)-3-methyl-1-oxo-1-(1-oxo-4-phenyl-2,8-diazaspiro[4.5]decan-8-yl)butan-2-yl)-5-(trifluoromethyl)benzamide]
14 | 74.4 | CC(C)[C@@H](NC(=O)c1cc(C(F)(F)F)ccc1F)C(=O)N1CCC2(CC1)OC(=O)NC2c1ccccc1 (stereo partly drawn) [Compound 115, 2-fluoro-N-((2R)-3-methyl-1-oxo-1-(2-oxo-4-phenyl-1-oxa-3,8-diazaspiro[4.5]decan-8-yl)butan-2-yl)-5-(trifluoromethyl)benzamide]
15 | 5.1 | CC(C)[C@@H](NC(=O)c1cc(C(F)(F)F)ccc1F)C(=O)N1CCC2(CCN(C)CC2c2ccc(F)cc2)CC1 (stereo partly drawn) [Compound 221, 2-fluoro-N-((2R)-1-(7-(4-fluorophenyl)-9-methyl-3,9-diazaspiro[5.5]-undecan-3-yl)-3-methyl-1-oxobutan-2-yl)-5-(trifluoromethyl)benzamide]
16 | 6.5 | CC(C)[C@@H](NC(=O)c1cc(C(F)(F)F)ccc1F)C(=O)N1CCC2(CC1)CC(=O)NCC2c1ccc(F)cc1 (stereo partly drawn) [Compound 164, 2-fluoro-N-((2R)-1-(7-(4-fluorophenyl)-10-oxo-3,9-diazaspiro[5.5]undecan-3-yl)-3-methyl-1-oxobutan-2-yl)-5-(trifluoromethyl)benzamide]
17 | 102 | CC(C)[C@@H](NC(=O)c1cc(C(F)(F)F)ccc1F)C(=O)N1CCC2(CC1)C(=O)N(CC1CC1)CC2c1cccnc1 (stereo partly drawn) [Compound 113, N-((2R)-1-(2-(cyclopropylmethyl)-1-oxo-4-(pyridin-3-yl)-2,8-diazaspiro[4.5]decan-8-yl)-3-methyl-1-oxobutan-2-yl)-2-fluoro-5-(trifluoromethyl)benzamide]
18 | 12 | CC(C)[C@H](NC(=O)c1cc(C(F)(F)F)ccc1F)C(=O)N1CCC2(CC1)CC(=O)N(C)CC2c1ccccc1 (stereo partly drawn) [Compound 185, 2-fluoro-N-((2S)-3-methyl-1-(9-methyl-10-oxo-7-phenyl-3,9-diazaspiro-[5.5]undecan-3-yl)-1-oxobutan-2-yl)-5-(trifluoromethyl)benzamide]
19 | 6.9 | CC(C)[C@@H](NC(=O)c1cc(C(F)(F)F)ccc1F)C(=O)N1CCC2(CC1)C(=O)N(C)CC2c1ccc(F)cc1 (stereo partly drawn) [Compound 103, 2-fluoro-N-((2R)-1-(4-(4-fluorophenyl)-2-methyl-1-oxo-2,8-diazaspiro[4.5]decan-8-yl)-3-methyl-1-oxobutan-2-yl)-5-(trifluoromethyl)benzamide]
20 | 69.8 | CC(C)[C@@H](NC(=O)c1cc(C(F)(F)F)ccc1F)C(=O)N1CCC2(CC1)C(=O)N(CCN)C(=O)C2c1ccccc1 (stereo partly drawn) [Compound 33, N-((2R)-1-(2-(2-aminoethyl)-1,3-dioxo-4-phenyl-2,8-diazaspiro[4.5]decan-8-yl)-3-methyl-1-oxobutan-2-yl)-2-fluoro-5-(trifluoromethyl)benzamide]
21 | 55.6 | CC(C)[C@@H](NC(=O)c1cc(C(F)(F)F)ccc1F)C(=O)N1CCC2(CC1)C(=O)N(C)C=C2c1ccccc1 [Compound 106, (R)-2-fluoro-N-(3-methyl-1-(2-methyl-1-oxo-4-phenyl-2,8-diazaspiro[4.5]dec-3-en-8-yl)-1-oxobutan-2-yl)-5-(trifluoromethyl)benzamide]
22 | 3.8 | CC(C)[C@@H](NC(=O)c1cc(OC(F)(F)F)ccc1F)C(=O)N1CCC2(CC1)C(=O)N(C)CC2c1ccccc1 (stereo partly drawn) [Compound 110, 2-fluoro-N-((2R)-3-methyl-1-(2-methyl-1-oxo-4-phenyl-2,8-diazaspiro[4.5]decan-8-yl)-1-oxobutan-2-yl)-5-(trifluoromethoxy)benzamide]
23 | 7.1 | CC(C)[C@@H](NC(=O)c1cc(C(F)(F)F)ccc1F)C(=O)N1CCC2(CC1)CN(C)CC2c1ccc(F)cc1 (stereo partly drawn) [Compound 119, 2-fluoro-N-((2R)-1-(4-(4-fluorophenyl)-2-methyl-2,8-diazaspiro[4.5]decan-8-yl)-3-methyl-1-oxobutan-2-yl)-5-(trifluoromethyl)benzamide]
24 | 150 | CCOC(=O)N1CC(c2ccc(F)cc2)C2(CCN(C(=O)[C@H](NC(=O)c3cc(C(F)(F)F)ccc3F)C(C)C)CC2)C1 (stereo partly drawn) [Compound 131, ethyl 8-((2-fluoro-5-(trifluoromethyl)benzoyl)-D-valyl)-4-(4-fluorophenyl)-2,8-diazaspiro[4.5]decane-2-carboxylate]
25 | 4.4 | CN1CC(c2ccc(F)cc2)C2(CCN(C(=O)[C@H](NC(=O)c3cc(C(F)(F)F)ccc3F)C3CCCCC3)CC2)C1 (stereo partly drawn) [Compound 142, N-((1R)-1-cyclohexyl-2-(4-(4-fluorophenyl)-2-methyl-2,8-diazaspiro[4.5]decan-8-yl)-2-oxoethyl)-2-fluoro-5-(trifluoromethyl)benzamide]
26 | 130 | CC(C)[C@@H](NC(=O)c1cc(Cl)ccc1Cl)C(=O)N1CCC2(CC1)CN(C)CC2c1ccc(F)cc1 (stereo partly drawn) [Compound 151, 2,5-dichloro-N-((2R)-1-(4-(4-fluorophenyl)-2-methyl-2,8-diazaspiro[4.5]decan-8-yl)-3-methyl-1-oxobutan-2-yl)benzamide]
